pIC50: −log10 of the molar value.
Columns and labels:
B16F10 melanoma cells = test: Effect of reducing melanin production in melanocytes (Dooley's method); type: cell-based; conditions: B16-F10, 120 h; Mouse-derived B16F10 melanoma cells; melanin extracted after 5 days, absorbance at 405 nm; read-out: IC50 (concentration required to reduce melanin production in melanocytes to half)
Protocol: The effect of reducing melanin production of the benzamide derivative compounds prepared in Examples in melanocytes was measured according to the Dooley's method. Mouse-derived B16F10 melanoma cells acquired from the Korean Cell Line Bank were used. DMEM (Cat No. 11995), FBS (Cat No. 16000-044), and antibiotic and antifungal agents (Cat No. 15240-062) necessary for cell culturing were purchased from Invitrogen (GIBCO). The cells were cultured under the condition of 37° C. and 5% CO2. The cultured B16F10 cells were detached using 0.05% trypsin-EDTA and seeded onto a 48-well plate with the same cell number (1×10^4 cells/well). From the next day, the culture medium was replaced with one containing 10 ppm of the compound of Examples for three consecutive days. Kojic acid and rucinol were used as positive control. After 5 days, melanin was extracted from the cells by treating with 1 N NaOH at 60° C. for 2 hours, which was quantitated by measuring absorbance at 405 nm.

mushroom tyrosinase = test: Effect of inhibiting mushroom tyrosinase activity (method of Vanni, et al.); type: biochemical; conditions: read-out: IC50 (concentration required to inhibit tyrosinase activity to 50%); mushroom tyrosinase 10 units, tyrosine substrate, 37° C. for 10 minutes, pH 6.8, absorbance at 480 nm
Protocol: The effect of inhibiting mushroom tyrosinase activity of the benzamide derivative compounds of Examples was measured according to the method of Vanni, et al. Specifically, 49.5 μL of 0.1 M potassium phosphate buffer (pH 6.8), 45 μL of distilled water (DW), 0.5 μL (10 units) of mushroom tyrosinase (SIGMAT-7755) and 5 μL of the benzamide derivative compound of Examples were mixed and reacted at 37° C. for 10 minutes by mixing with 50 μL of 0.3 mg/mL tyrosine aqueous solution in a 96-well plate (total volume: 150 μL).

Row | pIC50 (B16F10 melanoma cells) | pIC50 (mushroom tyrosinase) | SMILES
1 |  | 6.05 | O=C(NCc1ccc(O)cc1O)c1ccc(O)c(C23CC4CC(CC(C4)C2)C3)c1 [Example 17, 3-adamantan-1-yl-N-(2,4-dihydroxybenzyl)-4-hydroxybenzamide]
2 |  | 5.85 | COc1ccc(C(=O)NCc2ccc(O)cc2O)cc1C12CC3CC(CC(C3)C1)C2 [Example 18, 3-adamantan-1-yl-N-(2,4-dihydroxybenzyl)-4-methoxybenzamide]
3 | 5.54 |  | O=C(NCc1cc(O)ccc1O)c1cc(C23CC4CC(CC(C4)C2)C3)c(O)cc1O [Example 20, 5-adamantan-1-yl-N-(2,5-dihydroxybenzyl)-2,4-dihydroxybenzamide]
4 | 5.70 |  | COc1cc(CNC(=O)c2cc(C34CC5CC(CC(C5)C3)C4)c(O)cc2O)cc(OC)c1 [Example 21, 5-adamantan-1-yl-N-(3,5-dimethoxybenzyl)-2,4-dihydroxybenzamide]
5 | 3.52 |  | O=c1cc(CO)occ1O [Kojic acid, reference compound]
6 | 5.00 | 5.89 | CCCCc1ccc(O)cc1O [Rucinol, reference compound]

More lines, now with the values behind:

Row | SMILES | pIC50 (B16F10 melanoma cells) | pIC50 (mushroom tyrosinase)
7 | O=C(NCCc1ccc(O)c(O)c1)c1cc(C23CC4CC(CC(C4)C2)C3)c(O)cc1O [Example 1, 5-adamantan-1-yl-N-[2-(3,4-dihydroxyphenyl)-ethyl]-2,4-dihydroxybenzamide] | 5.92 | 
8 | O=C(NCCc1ccc(O)cc1)c1cc(C23CC4CC(CC(C4)C2)C3)c(O)cc1O [Example 5, 5-adamantan-1-yl-2,4-dihydroxy-N-[2-(4-hydroxyphenyl)-ethyl]benzamide] | 5.96 | 
9 | O=C(NCc1ccc(O)cc1O)c1cc(C23CC4CC(CC(C4)C2)C3)c(O)cc1O [Example 8, 5-adamantan-1-yl-N-(2,4-dihydroxybenzyl)-2,4-dihydroxybenzamide] | 5.92 | 5.96
10 | COc1cc(O)c(C(=O)NCc2ccc(O)cc2O)cc1C12CC3CC(CC(C3)C1)C2 [Example 9, 5-adamantan-1-yl-N-(2,4-dihydroxybenzyl)-2-hydroxy-4-methoxybenzamide] | 5.74 | 6.10
11 | COc1cc(OC)c(C23CC4CC(CC(C4)C2)C3)cc1C(=O)NCc1ccc(O)cc1O [Example 10, 5-adamantan-1-yl-N-(2,4-dihydroxybenzyl)-2,4-dimethoxybenzamide] | 5.96 | 6.05
12 | COc1ccc(C(=O)NCc2ccc(O)c(O)c2)cc1C12CC3CC(CC(C3)C1)C2 [Example 12, 3-adamantan-1-yl-N-(3,4-dihydroxybenzyl)-4-methoxybenzamide] | 5.72 | 
13 | O=C(NCCc1ccc(O)c(O)c1)c1ccc(O)c(C23CC4CC(CC(C4)C2)C3)c1 [Example 13, 3-adamantan-1-yl-N-[2-(3,4-dihydroxyphenyl)-ethyl]-4-hydroxybenzamide] | 5.52 | 

From patent US9254251B2, “Benzoic acid amide compound” (AMOREPACIFIC CORPORATION, priority 2011, dated 2016)
